According to US20160213742A1, “COMPOSITIONS AND METHODS FOR THE TREATMENT OF FUNGAL INFECTIONS” (priority 2013, published 2016):
Entries after “also recorded” stand apart in the source; their conditions may differ.

Tests used:
human neutrophils = experiment: Microfluidic Neutrophil Chemotaxis assay; format: cell-based; conditions: for neutrophil (NF) migration counts (FIG. 1): 4 hour timepoint, relative to A. fumigatus alone
Source text: Two layers of photoresist (SU8; […] The wafer with patterned photoresist was used as a mold to produce polydimethylsiloxane (PDMS) (Fisher Scientific) devices, which were then bonded to the base of glass-bottom 12- or 24-well plates, using an oxygen plasma machine (Nordson-March). De-identified, fresh human blood samples from healthy volunteers, aged 18 years and older, who were not receiving immunosuppressants, were purchased from Research Blood Components, LLC. Peripheral blood was drawn in tubes containing a final concentration of 5 mM EDTA (Vacutainer; Becton Dickinson) and processed within 2 h of blood collection. Using a sterile technique, neutrophils were isolated from whole blood using HetaSep followed by the EasySep Human Neutrophil Enrichment Kit (STEMCELL Technologies) following the manufacturer's protocol. The purity of neutrophils was assessed to be >98% using the Sysmex KX-21N Hematology Analyzer (Sysmex America, Inc.). White blood cells were isolated using Hetasep followed by a 5 min spin down and wash with 1×PBS. White blood cells were stained with Hoechst (32.4 μM) (Sigma) following the manufacture's protocols. The final aliquots of white blood cells were resuspended in RPMI plus 10% fetal bovine serum (FBS−stock 50 mL FBS/450 mL RPMI) (Sigma-Aldrich) at a concentration of 20,000 cells/2 μL and kept at 37° C. Cells were then immediately introduced into the microfluidic device for the chemotaxis and Aspergillus fumigatus killing assay. All experiments were repeated at least three times with neutrophils or white blood cells from three different healthy donors. Immediately after bonding to the well plate, donut-shaped devices were filled with Aspergillus fumigatus conidia at a concentration of 10^6 cells/mL with or without either Compound 1 or Compound 11 [10 nM], caspofungin acetate [10 nM] and/or a solution of the chemoattractant N-formyl-methionyl-leucyl-phenylalanine (fMLP) [100 nM](Sigma-Aldrich, St. Louis, Mo.). The device was then placed in a vacuum for 15 min. The solution filled all of the FCCs as the air was displaced. The devices were then vigorously washed five times with 1×PBS to remove any residual Aspergillus fumigatus conidia, drug or chemoattractant that was outside of the FCCs. The device was then submerged in 0.5 mL of cell media. Neutrophils or white blood cells (20,000 cells/2 μL) were then pipetted into the cell loading chamber (CLC) using a gel-loading pipette tip. […] Image analysis of cell migration counts and fungi growth was analyzed by hand using Image J software. Neutrophil counts per chamber were counted every 15 min for the first 2 hours of the experiment and then every hour for the remaining 16 hours. Percentage of conidia that converted to hyphal growth was measured by counting conidia loaded per chamber before neutrophils or WBCs were loaded into the chamber and counting numbers of these conidia that grew hyphae by 18 hours. Fungal growth velocity was calculated using Image J. The 16 chambers in each device (n=3) were analyzed for at least three different healthy donors.

[1] = test system: Aspergillus fumigatus strain AF293; experiment: Microfluidic Aspergillus fumigatus Killing Assay with human neutrophils; format: cell-based
Source text: Microfluidic devices used to measure leukocyte migration in response to Aspergillus fumigatus with or without drug (Compound 1 or Compound 11), antifungal control (caspofungin acetate) and/or chemoattractant (fMLP) were manufactured using known microfabrication techniques. Two layers of photoresist (SU8; Microchem), the first one 10 μm thin (corresponding to the migration channels) and the second one 70 μm thick, corresponding to the focal chemotactic chambers (FCCs) were patterned on one silicon wafer sequentially using two photolithographic masks and processing cycles according to the instructions from the manufacturer. The wafer with patterned photoresist was used as a mold to produce polydimethylsiloxane (PDMS) (Fisher Scientific) devices, which were then bonded to the base of glass-bottom 12- or 24-well plates, using an oxygen plasma machine (Nordson-March).
Aspergillus fumigatus strain AF293 expressing either cytosolic red fluorescent protein (RFP) or green fluorescent protein (GFP) was grown on Sabouraud dextrose agar plates supplemented with 100 μg/mL ampicillin at 30° C. for 3-4 days. Conidia were harvested by gentle scraping followed by washing in ice-cold phosphate buffered saline (PBS) three times. Conidia were immediately used or stored at 4° C. for use within one week.
De-identified, fresh human blood samples from healthy volunteers, aged 18 years and older, who were not receiving immunosuppressants, were purchased from Research Blood Components, LLC. Peripheral blood was drawn in tubes containing a final concentration of 5 mM EDTA (Vacutainer; Becton Dickinson) and processed within 2 h of blood collection. Using a sterile technique, neutrophils were isolated from whole blood using HetaSep followed by the EasySep Human Neutrophil Enrichment Kit ([…] Technologies) following the manufacturer's protocol. The purity of neutrophils was assessed to be >98% using the Sysmex KX-21N Hematology Analyzer (Sysmex America, Inc.). White blood cells were isolated using Hetasep followed by a 5 min spin down and wash with 1×PBS. White blood cells were stained with Hoechst (32.4 μM) (Sigma) following the manufacture's protocols. The final aliquots of white blood cells were resuspended in RPMI plus 10% fetal bovine serum (FBS−stock 50 mL FBS/450 mL RPMI) (Sigma-Aldrich) at a concentration of 20,000 cells/2 μL and kept at 37° C. Cells were then immediately introduced into the microfluidic device for the chemotaxis and Aspergillus fumigatus killing assay. All experiments were repeated at least three times with neutrophils or white blood cells from three different healthy donors.
Immediately after bonding to the well plate, donut-shaped devices were filled with Aspergillus fumigatus conidia at a concentration of 10^6 cells/mL with or without either Compound 1 or Compound 11 [10 nM], caspofungin acetate [10 nM] and/or a solution of the chemoattractant N-formyl-methionyl-leucyl-phenylalanine (fMLP) [100 nM](Sigma-Aldrich, St. Louis, Mo.). The device was then placed in a vacuum for 15 min. The solution filled all of the FCCs as the air was displaced. The devices were then vigorously washed five times with 1×PBS to remove any residual Aspergillus fumigatus conidia, drug or chemoattractant that was outside of the FCCs. The device was then submerged in 0.5 mL of cell media. Neutrophils or white blood cells (20,000 cells/2 μL) were then pipetted into the cell loading chamber (CLC) using a gel-loading pipette tip. Neutrophil migration into the migration channel toward the FCC started immediately and was recorded using time-lapse imaging on a fully automated Nikon TiE microscope (10× magnification) with biochamber heated to 37° C. with 5% carbon dioxide gas. Image analysis of cell migration counts and fungi growth was analyzed by hand using Image J software.
Image analysis of cell migration counts and fungi growth was analyzed by hand using Image J software.

`CSCC[C@H](NC=O)C(=O)N[C@@H](CC(C)C)C(=O)N[C@@H](Cc1ccccc1)C(=O)O` [fMLP, N-formyl-methionyl-leucyl-phenylalanine, reference compound] was tested, and the “neutrophil (NF) migration counts (FIG. 1)” value (human neutrophils; 100 nM fMLP alone, no A. fumigatus) was “increased NF migration”, the “neutrophil (NF) migration counts (FIG. 1)” value (human neutrophils; in the presence of Aspergillus fumigatus, Compound 1, Compound 11, caspofungin acetate 10 nM, fMLP 100 nM) was “increased NF migration” and the “timecourse of neutrophil (PMNs) migration in FCCs (FIG. 4)” value (human neutrophils; with A. fumigatus, three healthy blood donors, t=0, 8, and 16 hours) was “migration of PMNs”. The “timecourse of A. fumigatus (Af) growth in FCCs (FIG. 4)” value ([1]; in presence of PMNs, three healthy blood donors, t=0, 8, and 16 hours) was “inhibition of growth of Af” and the “percent hyphal growth compared to remaining conidia (FIG. 2)” value ([1]; with added neutrophils (NFs), Compound 1, Compound 11, caspofungin acetate 10 nM, fMLP 100 nM, hyphae by 18 hours) was “inhibition of Aspergillus fumigatus hyphal growth; also recorded: able to suppress hyphal growth”.
